For 23 compounds, IC50 results are on record in patent US8188139B2, “Heterocyclic-substituted phenyl methanones” (Hoffman-La Roche Inc., priority 2005, dated 2012).

The target of this assay is T1, mGlyT-1b (Mus musculus, UniProt P28571).
T1 construct: host or cells: Flp-in-CHO
T1 sequence (P28571 1-651 isoform P28571-2): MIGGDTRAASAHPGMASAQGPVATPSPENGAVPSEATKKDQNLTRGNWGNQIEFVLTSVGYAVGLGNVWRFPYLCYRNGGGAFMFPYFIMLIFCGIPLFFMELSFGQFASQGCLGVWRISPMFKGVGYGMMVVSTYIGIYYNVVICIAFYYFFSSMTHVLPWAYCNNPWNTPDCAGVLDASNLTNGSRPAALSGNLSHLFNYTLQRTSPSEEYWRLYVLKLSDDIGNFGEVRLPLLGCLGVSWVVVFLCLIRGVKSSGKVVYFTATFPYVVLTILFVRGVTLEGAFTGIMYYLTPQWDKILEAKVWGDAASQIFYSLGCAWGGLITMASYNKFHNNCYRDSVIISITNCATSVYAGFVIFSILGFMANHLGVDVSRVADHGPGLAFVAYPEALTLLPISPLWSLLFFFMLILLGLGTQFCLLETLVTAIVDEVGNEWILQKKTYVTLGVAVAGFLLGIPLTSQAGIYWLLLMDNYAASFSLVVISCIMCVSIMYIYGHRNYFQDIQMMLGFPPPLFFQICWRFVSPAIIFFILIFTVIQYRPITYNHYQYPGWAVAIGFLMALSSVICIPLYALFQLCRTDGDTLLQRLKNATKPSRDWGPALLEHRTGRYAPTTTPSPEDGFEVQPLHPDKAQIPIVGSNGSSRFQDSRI
Description: Glycine uptake inhibition assay (mGlyT-1b). It counts as cell-based. To be noted: inhibition of [3H]-glycine uptake in Flp-in-CHO cells transfected with mGlyT-1b cDNA; 20 min preincubation at 22° C.; read-out: IC50 (μM) at GlyT-1. Here is the method:
DMEM complete medium: Nutrient mixture F-12 (Gibco Life-technologies), fetal bovine serum (FBS) 5%, (Gibco life technologies), Penicillin/Streptomycin1% (Gibco life technologies), Hygromycin 0.6 mg/ml (Gibco life technologies), Glutamine 1 mM Gibco life technologies)
Uptake buffer (UB): 150 mM NaCl, 10 mM Hepes-Tris, pH 7.4, 1 mM CaCl2, 2.5 mM KCl, 2.5 mM MgSO4, 10 mM (+) D-glucose.
Flp-in™-CHO (Invitrogen Cat n^o R758-07) cells stably transfected with mGlyT1b cDNA.
Glycine Uptake Inhibition Assay (mGlyT-1b)
On day 1 mammalian cells, (Flp-in™-CHO), transfected with mGlyT-1b cDNA, were plated at the density of 40,000 cells/well in complete F-12 medium, without hygromycin in 96-well culture plates. On day 2, the medium was aspirated, and the cells were washed twice with uptake buffer (UB). The cells were then incubated for 20 min at 22° C. with either (i) no potential competitor, (ii) 10 mM non-radioactive glycine, (iii) a concentration of a potential inhibitor. A range of concentrations of the potential inhibitor was used to generate data for calculating the concentration of inhibitor resulting in 50% of the effect (e.g. IC50, the concentration of the competitor inhibiting glycine uptake of 50%). A solution was then immediately added containing [^3H]-glycine 60 nM (11-16 Ci/mmol) and 25 μM non-radioactive glycine. The plates were incubated with gentle shaking, and the reaction was stopped by aspiration of the mixture and washing (three times) with ice-cold UB. The cells were lysed with scintillation liquid, shaken 3 hours, and the radioactivity in the cells was counted using a scintillation counter.

Turning to `CS(=O)(=O)c1ccc(-c2ccc(F)c(F)c2)c(C(=O)N2Cc3cc(C(F)(F)F)cnc3C2)c1` [Example 148, (3′,4′-Difluoro-4-methanesulfonyl-biphenyl-2-yl)-(3-trifluoromethyl-5,7-dihydro-pyrrolo[3,4-b]pyridin-6-yl)-methanone], the IC50 was determined as 0.032 µM.

Regarding `CS(=O)(=O)c1ccc(-c2ccc(F)c(F)c2)c(C(=O)N2Cc3cnc(C(F)(F)F)cc3C2)c1` [Example 146, (3′,4′-Difluoro-4-methanesulfonyl-biphenyl-2-yl)-(6-trifluoromethyl-1,3-dihydro-pyrrolo[3,4-c]pyridin-2-yl)-methanone], the IC50 is 0.047 µM.

For the compound `COc1cc2c(cc1Cl)CN(C(=O)c1cc(S(C)(=O)=O)ccc1OCC(C)C)C2` [Example 221, (5-Chloro-6-methoxy-1,3-dihydro-isoindol-2-yl)-(2-isobutoxy-5-methanesulfonyl-phenyl)-methanone], the IC50 stood at 0.022 µM.

`COc1cc2c(cc1Cl)CN(C(=O)c1cc(S(C)(=O)=O)ccc1SC(C)C)C2` [Example 71, (5-Chloro-6-methoxy-1,3-dihydro-isoindol-2-yl)-(2-isopropylsulfanyl-5-methanesulfonyl-phenyl)-methanone]: the IC50 came out at 0.049 µM.

Turning to `CC(C)(C)COc1ccc(S(C)(=O)=O)cc1C(=O)N1Cc2ccc(C3CCOCC3)cc2C1` [Example 273, [2-(2,2-Dimethyl-propoxy)-5-methane-sulfonyl-phenyl]-[5-(tetrahydro-pyran-4-yl)-1,3-dihydro-isoindol-2-yl]-methanone], the IC50 came out at 0.047 µM.

Take `CS(=O)(=O)c1ccc(OCC2CCC2)c(C(=O)N2Cc3cnc(C(F)(F)F)cc3C2)c1` [Example 118, (2-Cyclobutyl-methoxy-5-methane-sulfonyl-phenyl)-(6-trifluoromethyl-1,3-dihydro-pyrrolo [3,4-c]pyridin-2-yl)-methanone]: the IC50 was 0.038 µM.

Turning to `Cc1cc(-c2ccc3c(c2)CN(C(=O)c2cc(S(C)(=O)=O)ccc2O[C@@H](C)C(F)(F)F)C3)cs1` [Example 170, [5-Methanesulfonyl-2-((S)-2,2,2-trifluoro-1-methyl-ethoxy)-phenyl]-[5-(5-methyl-thiophen-3-yl)-1,3-dihydro-isoindol-2-yl]-methanone], the half-inhibitory concentration (IC50) was determined as 0.048 µM.

Turning to `CCSc1cc2c(cc1C(F)(F)F)CN(C(=O)c1cc(S(C)(=O)=O)ccc1O[C@@H](C)C(F)(F)F)C2` [Example 217, (5-Ethylsulfanyl-6-trifluoromethyl-1,3-dihydro-isoindol-2-yl)-[5-methanesulfonyl-2-((S)-2,2,2-trifluoro-1-methyl-ethoxy)-phenyl]-methanone], the IC50 was 0.037 µM.

Regarding `C[C@H](Oc1ccc(S(C)(=O)=O)cc1C(=O)N1Cc2ccc(-c3ccsc3)cc2C1)C(F)(F)F` [Example 330, [5-Methanesulfonyl-2-(2,2,2-trifluoro-1-methyl-ethoxy)-phenyl]-(5-thiophen-3-yl-1,3-dihydro-isoindol-2-yl)-methanone], the IC50 is 0.02 µM.

As for `CS(=O)(=O)c1ccc(-c2ccc(F)cc2)c(C(=O)N2Cc3ccc(C4CCOCC4)cc3C2)c1` [Example 283, (4′-Fluoro-4-methanesulfonyl-biphenyl-2-yl)-[5-(tetrahydro-pyran-4-yl)-1,3-dihydro-isoindol-2-yl]-methanone], the half-inhibitory concentration (IC50) is 0.016 µM.

`C[C@H](Oc1ccc(S(C)(=O)=O)cc1C(=O)N1Cc2cnc(N3CCOCC3)cc2C1)C(F)(F)F` [Example 356, [5-Methanesulfonyl-2-((S)-2,2,2-trifluoro-1-methyl-ethoxy)-phenyl]-(6-morpholin-4-yl-1,3-dihydro-pyrrolo[3,4-c]pyridin-2-yl)-methanone]: the IC50 amounted to 0.013 µM.

For the compound `C[C@H](Oc1ccc(S(C)(=O)=O)cc1C(=O)N1Cc2cc(-c3ccc(F)cc3)cnc2C1)C(F)(F)F` [Example 322, [3-(4-Fluoro-phenyl)-5,7-dihydro-pyrrolo[3,4-b]pyridin-6-yl]-[5-methanesulfonyl-2-((S)-2,2,2-trifluoro-1-methyl-ethoxy)-phenyl]-methanone], the IC50 was 0.012 µM.

As for `CC(C)Oc1ccc(S(C)(=O)=O)cc1C(=O)N1Cc2ccc(C3CCOCC3)cc2C1` [Example 268, (2-Isopropoxy-5-methanesulfonyl-phenyl)-[5-(tetrahydro-pyran-4-yl)-1,3-dihydro-isoindol-2-yl]-methanone], the IC50 was 0.028 µM.

For `COC(=O)c1cccc2c1CCN2C(=O)c1cc(S(C)(=O)=O)ccc1O[C@@H](C)C(F)(F)F` [Example 205, 1-[5-Methanesulfonyl-2-((S)-2,2,2-trifluoro-1-methyl-ethoxy)-benzoyl]-2,3-dihydro-1H-indole-4-carboxylic acid methyl ester], the IC50 is 0.046 µM.

Take `COc1cc2c(cc1Cl)CN(C(=O)c1cc(S(C)(=O)=O)ccc1O[C@H](C)C(F)(F)F)C2` [Example 218, (5-Chloro-6-methoxy-1,3-dihydro-isoindol-2-yl)-[5-methane-sulfonyl-2-((R)-2,2,2-trifluoro-1-methyl-ethoxy)-phenyl]-methanone]: the IC50 came out at 0.04 µM.

With `CC(C)Oc1ccc(S(C)(=O)=O)cc1C(=O)N1Cc2cc(Cl)c(Cl)cc2C1` [Example 5, (5,6-Dichloro-1,3-dihydro-isoindol-2-yl)-(2-isopropoxy-5-methanesulfonyl-phenyl)-methanone], the IC50 worked out at 0.042 µM.

With `COc1cc2c(cc1Cl)CN(C(=O)c1cc(S(C)(=O)=O)ccc1O[C@@H](C)C(F)(F)F)C2` [Example 27, (5-Chloro-6-methoxy-1,3-dihydro-isoindol-2-yl)-[5-methanesulfonyl-2-((S)-2,2,2-trifluoro-1-methyl-ethoxy)-phenyl]-methanone], the IC50 was 0.022 µM.

Turning to `Cc1csc(-c2ccc3c(c2)CN(C(=O)c2cc(S(C)(=O)=O)ccc2O[C@@H](C)C(F)(F)F)C3)c1` [Example 331, [5-Methanesulfonyl-2-(2,2,2-trifluoro-1-methyl-ethoxy)-phenyl]-[5-(4-methyl-thiophen-2-yl)-1,3-dihydro-isoindol-2-yl]-methanone], the IC50 is 0.022 µM.

Turning to `C[C@H](Oc1ccc(S(C)(=O)=O)cc1C(=O)N1Cc2ccc(N3CCCC(F)(F)C3)cc2C1)C(F)(F)F` [Example 287, [5-(3,3-Difluoro-piperidin-1-yl)-1,3-dihydro-isoindol-2-yl]-[5-methanesulfonyl-2-((S)-2,2,2-trifluoro-1-methyl-ethoxy)-phenyl]-methanone], the IC50 came to 0.043 µM.

Consider `CS(=O)(=O)c1ccc(-c2ccc(F)cc2)c(C(=O)N2Cc3cc(Cl)c(N4CCOCC4)cc3C2)c1` [Example 256, (5-Chloro-6-morpho-lin-4-yl-1,3-dihydro-isoindol-2-yl)-(4′-fluoro-4-methane-sulfonyl-biphenyl-2-yl)-methanone], for which the IC50 is 0.032 µM.

Take `CS(=O)(=O)c1ccc(-c2cccc(F)c2)c(C(=O)N2Cc3cc(Cl)c(N4CCOCC4)cc3C2)c1` [Example 255, (5-Chloro-6-morpho-lin-4-yl-1,3-dihydro-isoindol-2-yl)-(3′-fluoro-4-methane-sulfonyl-biphenyl-2-yl)-methanone]: the IC50 was determined as 0.017 µM.

With `C[C@H](Oc1ccc(S(C)(=O)=O)cc1C(=O)N1Cc2ccc(CC(F)(F)F)cc2C1)C(F)(F)F` [Example 290, [5-Methanesulfonyl-2-((S)-2,2,2-trifluoro-1-methyl-ethoxy)-phenyl]-[5-(2,2,2-tri-fluoro-ethyl)-1,3-dihydro-isoindol-2-yl]-methanone], the half-inhibitory concentration (IC50) was found to be 0.022 µM.

Regarding `CS(=O)(=O)c1ccc(OCC(F)(F)C(F)F)c(C(=O)N2Cc3cc(C(F)(F)F)cnc3C2)c1` [Example 158, [5-Methanesulfonyl-2-(2,2,3,3-tetrafluoro-propoxy)-phenyl]-(3-trifluoromethyl-5,7-dihydro-pyrrolo[3,4-b]pyridin-6-yl)-methanone], the IC50 came to 0.024 µM.

The term IC50 denotes the concentration that inhibits the measured activity by half.
